How the values were obtained:
splenic lymphocytes = assay: Lymphoproliferative assay (tritiated thymidine incorporation, stimulation index); type: cell-based, mice
Description: To evaluate the T cell-mediated immune response against the WNV Cp gene product, an in vivo mouse experiment was set up. The quadriceps muscles of 6- to 8-week-old female BALB/c mice (Harlan Sprague Dawley, Inc., Indianapolis, Ind.) were injected with 100 μg of pWNVh-DJY, pWNVy-DJY, or pcDNA3.1 (without an insert) in PBS and 0.25% bupivacaine-HCl (Sigma, St Louis, Mo.). Two weeks later, the mice received a boost of another 100 μg DNA injections. Thirteen days after the boost injection, the mice were sacrificed, the spleens were harvested, and the lymphocytes were isolated and tested for cellular immune responses.
Harvested splenic lymphocytes were pooled for two mice in each immunized group and suspended to a concentration of 5×10^6 cells/ml. A 100 μl aliquot, containing 5×10^5 cells, was immediately added to each well of a 96-well, flat bottom microtiter plate. Reconstituted peptide, in vitro translated protein, or in vitro translation control were added to the wells, at concentrations of 5 μg/ml and 1 μg/ml (and 0.5 μg/ml for in vitro translated protein and in vitro translation control protein). Concanavalin A (Con A) was used as a positive proliferation control. The assay conditions were set up in triplicate. The cells were incubated at 37° C. in 5% CO2 for three days. One μCi of tritiated thymidine was added to each well and the cells were incubated for 18 hours at 37° C. The plate was harvested and the amount of incorporated tritiated thymidine was measured in a Beta Plate reader (Wallac, Turku, Finland). Stimulation Index was determined from the formula: Stimulation Index (SI)=(experimental count/spontaneous count). Spontaneous count wells included 5% fetal bovine serum which served as an irrelevant protein control.
The values presented for each condition are stimulation indices averaged over triplicate wells. For each immunization group tested, splenocytes were pooled from two mice within the group. “H” indicates splenocytes from the pWNVh-DJY-immunized group. “Y” indicates splenocytes from the pWNVh-DJY-immunized group of mice. “pcDNA3.1” indicates splenocytes from the pcDNA3.1-immunized control group of mice. Peptides 1, 2, and 3 are the WNVC-P1, WNVC-P2, and WNVC-P3 peptides described above. “Peptide 123” indicates a mixture of peptide 1, 2, and 3. “Y protein” indicates the Cp protein in vitro translated from the pWNVy-DJY construct. “Ctrl pro” indicates the in vitro translation control, generated with pcDNA3.1 vector containing no expressible insert, as described above. Detection of Intracellular IFN-γ by Flow Cytometry

[1] = tested on: SH-SY5Y neuroblastoma cells; assay: TUNEL analysis of cells incubated with peptide; type: cell-based; details: 10 μg peptide per 1×10^5 cells, 24 hours
Description: Peptide WNVC-P3, as described in Example 3 and FIG. 11 above, was tested for its ability to induce apoptosis in cells in culture. Peptide WNVC-P3 was incubated with SH-SY5Y neuroblastoma cells (ATCC; Manassas, Va.) at a concentration of 10 μg peptide per 1×10^5 cells.

[2] = splenocytes from H (pWNVh-DJY-immunized) mice, protein or peptide 5 μg/ml
[3] = splenocytes from Y group of immunized mice, protein or peptide 5 μg/ml
[4] = splenocytes from pcDNA3.1-immunized control mice, protein or peptide 5 μg/ml
[5] = splenocytes from H (pWNVh-DJY-immunized) mice, protein or peptide 1 μg/ml
[6] = splenocytes from Y group of immunized mice, protein or peptide 1 μg/ml
[7] = splenocytes from pcDNA3.1-immunized control mice, protein or peptide 1 μg/ml

Substance	Stimulation Index (SI) (splenic lymphocytes; [2])	Stimulation Index (SI) (splenic lymphocytes; [3])	Stimulation Index (SI) (splenic lymphocytes; [4])	Stimulation Index (SI) (splenic lymphocytes; [5])	Stimulation Index (SI) (splenic lymphocytes; [6])	Stimulation Index (SI) (splenic lymphocytes; [7])	TUNEL-positive cells [1]
Concanavalin A [Con A, reference compound]	686.5	366.9	71.8	–	–	–	–
KRAMLSLIDGKGPIRFVLA [Peptide 2]	1.7	1.6	0.9	1.3	1.8	1.0	–
SKKPGGPGKSRAVNMLKRGMPR [Peptide 1]	0.5	0.8	0.9	0.7	1.2	1.3	–
TLTSAINRRSSKQKKRGGKTGI [Peptide 3]	1.5	1.1	0.8	2.0	1.4	0.7	TUNEL-positive cells were identified

Reference: patent US7348138B2, “Method of inducing cell death using West Nile virus capsid protein” (priority 2000, dated 2008)
